In US3954814A, “Alkadienylcyclopropanecarboxylates” (Sumitomo Chemical Company, Limited, priority 1971, dated 1976):
Values after ≈ are worked out from the molar mass of the structure shown.

system: Northern house mosquitoes; test: knock-down test of oil sprays on Northern house mosquito adults in (70 cm)^3 glass chamber (Experimental Example 2); format: in vivo; details: concentration of oil spray 0.1%
Protocol: The present compounds (1), (6), (20), (22), (23), (25), (27), (29), (30), (31), (39), (42), (43), (45), (49), (53), (56), (62), (64), (78), (81), (83), (85), (87), (88) and (89), and chrysanthemic acid esters and pyrethric acid esters corresponding thereto were individually formulated by use of deodorized kerosene into oil sprays of various test concentrations.
About 20 adults of Northern house mosquitoes were liberated in a (70 cm)^3 glass chamber, and 0.7 ml. of each of the oil sprays was sprayed into the chamber under a pressure of 1.5 kg/cm^2 by use of a glass atomizer. Subsequently, the number of knocked-down mosquitoes was counted to calculate the KT50 (50 percent knock down time) of each compound.

SMILES	KT50 (50 percent knock down time) [s]
C#CCC1=C(C)C(OC(=O)C2C(C=C(C)C=C)C2(C)C)CC1=O (centres unmarked) [Present compound (25), 2-propargyl-3-methyl-2-cyclopentene-1-one-4-yl 2',2'-dimethyl-3'-(2"-methyl-1",3"-butadienyl)-cyclopropanecarboxylate]	190
C=CC=CC1C(C(=O)OCN2C(=O)C3=C(CC=CC3)C2=O)C1(C)C (centres unmarked) [Present compound (88), 3,6-Dihydrophthalimidomethyl 2',2'-dimethyl-3'-(1",3"-butadienyl)-cyclopropanecarboxylate]	79
C=CC(C)=CC1C(C(=O)OCN2C(=O)C3=C(CC=CC3)C2=O)C1(C)C (centres unmarked) [Present compound (30), 3,6-Dihydrophthalimidomethyl 2',2'-dimethyl-3'-(2"-methyl-1",3"-butadienyl)-cyclopropanecarboxylate]	89
C=CC(C)=CC1C(C(=O)OCN2C(=O)C3=C(CCCC3)C2=O)C1(C)C (centres unmarked) [Present compound (27), 3,4,5,6-Tetrahydrophthalimidomethyl 2',2'-dimethyl-3'-(2"-methyl-1",3"-butadienyl)-cyclopropanecarboxylate]	83
C#CCc1ccc(C(C#C)OC(=O)C2C(C=C(C)C=C)C2(C)C)o1 (centres unmarked) [Present compound (20), 5-Propargylα-ethynylfurfuryl 2',2'-dimethyl-3'-(2"-methyl-1",3"-butadienyl)-cyclopropanecarboxylate]	102
C=CC=CC1C(C(=O)OC(C#N)c2cccc(Cc3ccccc3)c2)C1(C)C (stereo not drawn) [Present compound (62), 3-Benzyl-α-cyanobenzyl 2',2'-dimethyl-3'-(1",3"-butadienyl)-cyclopropanecarboxylate]	144
C=CC=CC1C(C(=O)OCN2C(=O)C(C)=C(C)C2=O)C1(C)C (centres unmarked) [Present compound (89), Dimethylmaleimidomethyl 2,2-dimethyl-3-(1',3'-butadienyl)-cyclopropanecarboxylate]	72
C#CCC1=C(C)C(OC(=O)C2C(C=C(C)C)C2(C)C)CC1=O (centres unmarked) [2-Propargyl-3-methyl-2-cyclopentene-1-one-4-yl chrysanthemate, reference compound]	249
CC=CC(C)=CC1C(C(=O)OCN2C(=O)C3=C(CCCC3)C2=O)C1(C)C (centres unmarked) [Present compound (43), 3,4,5,6-Tetrahydrophthalimidomethyl 2',2'-dimethyl-3'-(2"-methyl-1",3"-pentadienyl)-cyclopropanecarboxylate]	197
CC(C)=CC1C(C(=O)OCN2C(=O)C3=C(CC=CC3)C2=O)C1(C)C (centres unmarked) [3,6-Dihydrophthalimidomethyl chrysanthemate, reference compound]	107
C#CCC1=C(C)C(OC(=O)C2C(C=CC=C)C2(C)C)CC1=O (centres unmarked) [Present compound (83), 2-Propargyl-3-methyl-2-cyclopentene-1-one-4-yl 2',2'-dimethyl-3'-(1",3"-butadienyl)-cyclopropanecarboxylate]	183
CC(C)=CC(C)=CC1C(C(=O)OCN2C(=O)C3=C(CCCC3)C2=O)C1(C)C (centres unmarked) [Present compound (49), 3,4,5,6-Tetrahydrophthalimidomethyl 2',2'-dimethyl-3'-(2",4"-dimethyl-1",3"-pentadienyl)-cyclopropanecarboxylate]	86
CC(C)=CC1C(C(=O)OCN2C(=O)C(C)=C(C)C2=O)C1(C)C (centres unmarked) [Dimethylmaleimidomethyl chrysanthemate, reference compound]	101
C=CC=CC1C(C(=O)OCN2C(=O)C3=C(CCCC3)C2=O)C1(C)C (centres unmarked) [Present compound (85), 3,4,5,6-Tetrahydrophthalimidomethyl 2',2'-dimethyl-3'-(1",3"-butadienyl)-cyclopropanecarboxylate]	74
CC(C)=CC1C(C(=O)OCN2C(=O)C3=C(CCCC3)C2=O)C1(C)C (centres unmarked) [3,4,5,6-Tetrahydrophthalimidomethyl chrysanthemate, reference compound]	103
C=CC(C)=CC1C(C(=O)OCN2C(=O)C(C)=C(C)C2=O)C1(C)C (centres unmarked) [Present compound (31), Dimethylmaleimidomethyl 2,2-dimethyl-3-(2'-methyl-1',3'-butadienyl)-cyclopropanecarboxylate]	80

same assay, conditions: concentration of oil spray 0.2%

SMILES	KT50 (50 percent knock down time) [s]
C#CCc1ccc(COC(=O)C2C(C=C(C)C=CC)C2(C)C)o1 (centres unmarked) [Present compound (39), 5-Propargylfurfuryl 2',2'-dimethyl-3'-(2"-methyl-1",3"-pentadienyl)-cyclopropanecarboxylate]	114
C#CCc1ccc(COC(=O)C2C(C=C(C)C=C)C2(C)C)o1 (centres unmarked) [Present compound (6), 5-Propargylfurfuryl 2',2'-dimethyl-3'-(2"-methyl-1",3"-butadienyl)-cyclopropanecarboxylate]	105
C=CCC1=C(C)C(OC(=O)C2C(C=C(C)C=CC)C2(C)C)CC1=O (centres unmarked) [Present compound (42), 2-Allyl-3-methyl-2-cyclopentene-1-one-4-yl 2',2'-dimethyl-3'-(2"-methyl-1",3"-pentadienyl)-cyclopropanecarboxylate]	165
C#CCc1ccc(COC(=O)C2C(C=C(C)C)C2(C)C)o1 (centres unmarked) [5-Propargylfurfuryl chrysanthemate, reference compound]	132
COC(=O)C(C)=CC1C(C(=O)OCc2coc(Cc3ccccc3)c2)C1(C)C (centres unmarked) [5-Benzyl-3-furylmethyl pyrethrate, reference compound]	182
C=CC(C)=CC1C(C(=O)OCN2C(=O)c3ccccc3C2=S)C1(C)C (centres unmarked) [Present compound (29), Monothiophthalimidomethyl 2,2-dimethyl-3-(2'-methyl-1',3'-butadienyl)-cyclopropanecarboxylate]	182
C=CCC1=C(C)C(OC(=O)C2C(C=C(C)C=C)C2(C)C)CC1=O (centres unmarked) [Present compound (23), 2-Allyl-3-methyl-2-cyclopentene-1-one-4-yl 2',2'-dimethyl-3'-(2"-methyl-1",3"-butadienyl)-cyclopropanecarboxylate]	152
C#CCc1ccc(COC(=O)C2C(C=CC=C)C2(C)C)o1 (centres unmarked) [Present compound (64), 5-Propargylfurfuryl 2',2'-dimethyl-3' -(1",3"-butadienyl)-cyclopropanecarboxylate]	98
CC(C)=CC1C(C(=O)OCN2C(=O)c3ccccc3C2=S)C1(C)C (centres unmarked) [Monothiophthalimidomethyl chrysanthemate, reference compound]	207
CC=C(C)C=CC1C(C(=O)OCc2coc(Cc3ccccc3)c2)C1(C)C (centres unmarked) [Present compound (56), 5-Benzyl-3-furylmethyl 2',2'-dimethyl-3'-(3"-methyl-1",3"-pentadienyl)-cyclopropanecarboxylate]	150
C=CC=CC1C(C(=O)OCN2C(=O)c3ccccc3C2=S)C1(C)C (centres unmarked) [Present compound (87), Monothiophthalimidomethyl 2',2'-dimethyl-3'-(1",3"-butadienyl)-cyclopropanecarboxylate]	177
C=CCC1=C(C)C(OC(=O)C2C(C=C(C)C(=O)OC)C2(C)C)CC1=O (centres unmarked) [2-Allyl-3-methyl-2-cyclopentene-1-one-4-yl pyrethrate, reference compound]	173
C#CCc1ccc(COC(=O)C2C(C=C(C)C=C(C)C)C2(C)C)o1 (centres unmarked) [Present compound (45), 5-Propargylfurfuryl 2',2'-dimethyl-3'-(2",4"-dimethyl-1",3"-pentadienyl)-cyclopropanecarboxylate]	117

system: house flies; test: Campbell's turn table oil spray test on house fly adults (Experimental Example 1); format: in vivo; details: Musca domestica, 24 h, oil spray 5 ml, 10 min exposure, mortality after 1 day, read-out: LC50 (50 percent lethal concentration)
Protocol: The present compounds (1), (4), (8), (10), (14), (15), (20), (22), (32), (36), (38), (41), (44), (48), (50), (51), (52), (53), (61), (66), (68), (72), (73), (78), (80), (81), (90), (93) and (96), and chrysanthemic acid esters and pyrethric acid esters corresponding thereto were individually formulated by use of deodorized kerosene into oil sprays of various test concentrations.
Using the Campbell's turn table [disclosed in "Soap & Sanitary Chemicals," Vol. 14, No. 6, page 119 (1938)], 5 ml. of each of the oil sprays was sprayed. When 20 seconds had elapsed after the spraying, the shutter was opened, and adults of house flies (a group of about 100 flies) were exposed to the settling mist for 10 minutes and then transferred to an observation cage.
The above operation was repeated several times to measure the LC50 (50 percent lethal concentration) of each compound.

SMILES	LC50 [µg/mL]
C=CCc1cc(C)c(COC(=O)C2C(C=C(C)C(=O)OC)C2(C)C)c(C)c1 (centres unmarked) [2,6-Dimethyl-4-allylbenzyl pyrethrate, reference compound]	1420 (≈ 3830 µM)
C#CCc1ccc(C(C#C)OC(=O)C2C(C=C(C)C=C)C2(C)C)o1 (centres unmarked) [Present compound (20), 5-Propargylα-ethynylfurfuryl 2',2'-dimethyl-3'-(2"-methyl-1",3"-butadienyl)-cyclopropanecarboxylate]	90 (≈ 279 µM)
COC(=O)C(C)=CC1C(C(=O)OCc2cccc(Oc3ccccc3)c2)C1(C)C (centres unmarked) [3-Phenoxybenzyl pyrethrate, reference compound]	1250 (≈ 3170 µM)
C#CCc1ccc(C(C#C)OC(=O)C2C(C=C(C)C(=O)OC)C2(C)C)o1 (stereo not drawn) [5-Propargyl-α-ethynylfurfuryl pyrethrate, reference compound]	820 (≈ 2310 µM)
COC(=O)C(C)=CC1C(C(=O)OCc2coc(Cc3ccccc3)c2)C1(C)C (centres unmarked) [5-Benzyl-3-furylmethyl pyrethrate, reference compound]	890 (≈ 2330 µM)
C=CC=CC1C(C(=O)OC(C#N)c2cccc(Oc3cccc(C)c3)c2)C1(C)C (stereo not drawn) [Present compound (96), 3-(m-Tolyloxy)-α-cyanobenzyl 2',2'-dimethyl-3'-(1",3"-butadienyl)-cyclopropanecarboxylate]	60 (≈ 155 µM)
